Measured values reported in ChEMBL document CHEMBL1121693 (1981).

Experiments:
Type in all cases: functional
Mus musculus [1] = species on record: Mus musculus
Mus musculus [2] = species on record: Mus musculus; remark: listed apart in the source
Mus musculus [3] = species on record: Mus musculus; remark: listed apart in the source

c1ccc(C2(N3CCCCC3)CCCCC2)cc1 [PHENCYCLIDINE]
No. of mice (Mus musculus [1]): 0
No. of mice (Mus musculus [2]): 4
No. of mice (Mus musculus [3]): 0
